In article PMC6040060, “Identification of a new alanine racemase in Salmonella Enteritidis and its contribution to pathogenesis” (Gut Pathogens, 2018):
Read-outs that look alike come from different tables or passages of the source.

How the values were obtained:
DadX [1] = system: T1, DadX; assay: coupled spectrophotometric assay, NADH at […] nm (D-amino acid aminotransferase / L-lactate dehydrogenase); type: biochemical, Salmonella enterica subsp. enterica serovar Enteritidis; settings: L to D direction; 10 μM PLP, Tris-HCl pH 8.0, 37 °C
T1 construct: pET28a-dadX (NheI/XhoI), N-terminal 6xHis tag, E. coli BL21(DE3) Codon Plus, Ni-NTA purified

SEN3897 [2] = system: T2, SEN3897; settings: read-out: L → D / Km; L to D direction; 10 μM PLP, Tris-HCl pH 8.0, 37 °C
T2 construct: gene alr

DadX [3] = system: T1, DadX; assay: coupled spectrophotometric assay, NADH at […] nm (L-alanine dehydrogenase); type: biochemical, Salmonella enterica subsp. enterica serovar Enteritidis; settings: D to L direction; 10 μM PLP, 2.5 mM NAD+, Tris-HCl pH 8.0, 37 °C
SEN3897 [4] = system: T2, SEN3897; settings: read-out: D → L / Km; D to L direction; 10 μM PLP, 2.5 mM NAD+, Tris-HCl pH 8.0, 37 °C

| Compound | Km (DadX [1]) | Km (SEN3897 [2]) | Km (DadX [3]) | Km (SEN3897 [4]) |
| --- | --- | --- | --- | --- |
| C[C@H](N)C(=O)O [L-alanine] | 58.9 ± 2.7 mM | 89.1 ± 10.2 mM |  |  |
| C[C@@H](N)C(=O)O [D-alanine] |  |  | 52.8 ± 3 mM | 35 ± 6 mM |
